Measurements as given in EP2193713A1, “Method for fighting animal pests without damaging pollinating insects” (Bayer CropScience AG, priority 2008, dated 2010).

Key:
Format in all cases: in vivo
Apis mellifera [1] = assay: Tent test / drench application / bees: foraging activity; conditions: for Aktivität der Nahrungssuche, Zahl der Bienen / min / 4 m^2: 20 mg a.s./pl.
Description: Der Test wurde wie folgt durchgeführt:

Apis mellifera [2] = assay: Tunnel test / spray application / bees: acute mortality of pupae in front of the hive
Description: (§1) Der Test wurde gemäß EPPO (European Plant Protection Organisation) Leitlinie 170 wie folgt durchgeführt:
Tabelle 2 (siehe auch Figur 2)

Apis mellifera [3] = assay: Tunnel test / spray application / bees: brood development (share of comb cells)
Description: as §1
Über alle Waben eines Bienenstocks wird der jeweilige Anteil an Zellen bestimmt, der durch Pollen, Nektar, Eier, Larven oder Puppen belegt ist bzw. leer ist. […]

[4] = 75 g a.s./ha, 1 Tag vor Applikation
[5] = 75 g a.s./ha, 6 Tage nach Applikation
[6] = 75 g a.s./ha, 14 Tage nach Applikation
[7] = 75 g a.s./ha, 27 Tage nach Applikation
[8] = 150 g a.s./ha, 1 Tag vor Applikation

O=C1C=C(N(Cc2ccc(Cl)nc2)CC(F)F)CO1 [I-5, 4-{[(6-Chlorpyrid-3-yl)methyl](2,2-difluorethyl)amino}furan-2(5H)-on]
Aktivität der Nahrungssuche, Zahl der Bienen / min / 4 m^2 (Apis mellifera [1]; 5 DAA): 26 Bienen / min / 4 m^2 | Aktivität der Nahrungssuche, Zahl der Bienen / min / 4 m^2 (Apis mellifera [1]; 6 DAA b (14:30 Uhr)): 73 Bienen / min / 4 m^2 | Aktivität der Nahrungssuche, Zahl der Bienen / min / 4 m^2 (Apis mellifera [1]; 7 DAA): 21 Bienen / min / 4 m^2 | Aktivität der Nahrungssuche, Zahl der Bienen / min / 4 m^2 (Apis mellifera [1]; 8 DAA): 70 Bienen / min / 4 m^2 | Aktivität der Nahrungssuche, Zahl der Bienen / min / 4 m^2 (Apis mellifera [1]; 9 DAA): 41 Bienen / min / 4 m^2 | Aktivität der Nahrungssuche, Zahl der Bienen / min / 4 m^2 (Apis mellifera [1]; 11 DAA): 31 Bienen / min / 4 m^2 | Aktivität der Nahrungssuche, Zahl der Bienen / min / 4 m^2 (Apis mellifera [1]; 13 DAA): 86 Bienen / min / 4 m^2 | Aktivität der Nahrungssuche, Zahl der Bienen / min / 4 m^2 (Apis mellifera [1]; 15 DAA): 43 Bienen / min / 4 m^2 | Aktivität der Nahrungssuche, Zahl der Bienen / min / 4 m^2 (Apis mellifera [1]; 16 DAA): 51 Bienen / min / 4 m^2 | Aktivität der Nahrungssuche, Zahl der Bienen / min / 4 m^2 (Apis mellifera [1]; 17 DAA): 98 Bienen / min / 4 m^2 | Aktivität der Nahrungssuche, Zahl der Bienen / min / 4 m^2 (Apis mellifera [1]; 18 DAA): 71 Bienen / min / 4 m^2 | Aktivität der Nahrungssuche (Apis mellifera [1]; result in words, tent test, drench, I-5 20 mg a.s. / Pflanze, Thiamethoxam 10 mg a.s. / Pflanze (13 Tage nach Applikation)): keine Änderung | Zahl toter Puppen (Apis mellifera [2]; 75 g a.s./ha, 0 DAA c (17:15 Uhr)): 0 | Zahl toter Puppen (Apis mellifera [2]; 75 g a.s./ha, 1 DAA): 0 | Zahl toter Puppen (Apis mellifera [2]; 75 g a.s./ha, 2 DAA): 0,3 | Zahl toter Puppen (Apis mellifera [2]; 75 g a.s./ha, 5 DAA): 0 | Zahl toter Puppen (Apis mellifera [2]; 75 g a.s./ha, 6 DAA): 0 | Zahl toter Puppen (Apis mellifera [2]; 75 g a.s./ha, 11 DAA): 0,3 | Zahl toter Puppen (Apis mellifera [2]; 75 g a.s./ha, 14 DAA): 0 | Zahl toter Puppen (Apis mellifera [2]; 75 g a.s./ha, 18 DAA): 0 | Zahl toter Puppen (Apis mellifera [2]; 75 g a.s./ha, 21 DAA): 0 | Zahl toter Puppen (Apis mellifera [2]; 75 g a.s./ha, 25 DAA): 0 | Zahl toter Puppen (Apis mellifera [2]; 75 g a.s./ha, -3 DAA (before application)): 0 | Zahl toter Puppen (Apis mellifera [2]; 150 g a.s./ha, 0 DAA c (17:15 Uhr)): 0 | Zahl toter Puppen (Apis mellifera [2]; 150 g a.s./ha, 1 DAA): 0 | Zahl toter Puppen (Apis mellifera [2]; 150 g a.s./ha, 2 DAA): 0 | Zahl toter Puppen (Apis mellifera [2]; 150 g a.s./ha, 5 DAA): 0 | Zahl toter Puppen (Apis mellifera [2]; 150 g a.s./ha, 6 DAA): 0 | Zahl toter Puppen (Apis mellifera [2]; 150 g a.s./ha, 11 DAA): 0 | Zahl toter Puppen (Apis mellifera [2]; 150 g a.s./ha, 14 DAA): 0,7 | Zahl toter Puppen (Apis mellifera [2]; 150 g a.s./ha, 18 DAA): 0 | Zahl toter Puppen (Apis mellifera [2]; 150 g a.s./ha, 21 DAA): 0 | Zahl toter Puppen (Apis mellifera [2]; 150 g a.s./ha, 25 DAA): 0 | Zahl toter Puppen (Apis mellifera [2]; 150 g a.s./ha, -3 DAA (before application)): 0 | Mortalität von Puppen vor dem Bienenstock (Apis mellifera [2]; result in words, tunnel test, spray, I-5 75 und 150 g a.s./ha, Fenoxycarb 150 g a.s./ha): keine Mortalität | Anteil an Zellen: Eier (Apis mellifera [3]; [4]): 13,9% | Anteil an Zellen: Larven (Apis mellifera [3]; [4]): 9,2% | Anteil an Zellen: Leer (Apis mellifera [3]; [4]): 26,7% | Anteil an Zellen: Nektar (Apis mellifera [3]; [4]): 12,5% | Anteil an Zellen: Pollen (Apis mellifera [3]; [4]): 3,1% | Anteil an Zellen: Puppen (Apis mellifera [3]; [4]): 34,7% | Anteil an Zellen: Eier (Apis mellifera [3]; [5]): 14,7% | Anteil an Zellen: Larven (Apis mellifera [3]; [5]): 8,3% | Anteil an Zellen: Leer (Apis mellifera [3]; [5]): 32,8% | Anteil an Zellen: Nektar (Apis mellifera [3]; [5]): 12,5% | Anteil an Zellen: Pollen (Apis mellifera [3]; [5]): 4,4% | Anteil an Zellen: Puppen (Apis mellifera [3]; [5]): 27,2% | Anteil an Zellen: Eier (Apis mellifera [3]; [6]): 21,4% | Anteil an Zellen: Larven (Apis mellifera [3]; [6]): 19,7% | Anteil an Zellen: Leer (Apis mellifera [3]; [6]): 30,6% | Anteil an Zellen: Nektar (Apis mellifera [3]; [6]): 8,6% | Anteil an Zellen: Pollen (Apis mellifera [3]; [6]): 5% | Anteil an Zellen: Puppen (Apis mellifera [3]; [6]): 14,7% | Anteil an Zellen: Eier (Apis mellifera [3]; [7]): 16,7% | Anteil an Zellen: Larven (Apis mellifera [3]; [7]): 6,7% | Anteil an Zellen: Leer (Apis mellifera [3]; [7]): 20,7% | Anteil an Zellen: Nektar (Apis mellifera [3]; [7]): 13,2% | Anteil an Zellen: Pollen (Apis mellifera [3]; [7]): 3,3% | Anteil an Zellen: Puppen (Apis mellifera [3]; [7]): 39,4% | Anteil an Zellen: Eier (Apis mellifera [3]; [8]): 13,6% | Anteil an Zellen: Larven (Apis mellifera [3]; [8]): 16,4% | Anteil an Zellen: Leer (Apis mellifera [3]; [8]): 20,8% | Anteil an Zellen: Nektar (Apis mellifera [3]; [8]): 14,2% | Anteil an Zellen: Pollen (Apis mellifera [3]; [8]): 1,4% | Anteil an Zellen: Puppen (Apis mellifera [3]; [8]): 33,6% | Anteil an Zellen: Eier (Apis mellifera [3]; 150 g a.s./ha, 6 Tage nach Applikation): 15%
